Data set [1] concerns the target T1, CYP121A1 (Mycobacterium tuberculosis, UniProt P9WPP7).
T1 construct: made in house
In words: biochemical. Type of data set: binding. The settings on record: for Soret peak shift: Soret maximum ligand-free to ligand-bound CYP121A1; for Kd: UV-vis optical titration, 3–5 μM CYP121A1, 25 °C, pH 7.85, triplicate; for Soret maxima shifting by: extent of the Soret absorbance red shift on binding.

Data set [2] concerns M. tuberculosis H37Rv. Nature of the data set: Antimycobacterial activity, REMA (Resazurin Microtiter Assay) MIC. It is filed as cell-based, Mycobacterium tuberculosis. The settings on record: lowest concentration giving 90 % inhibition, 7 days 37 °C. A general note: The colour change of resazurin is a common sign of viable cells or microbes.
In data set [3] the target is T1, CYP121A1. Particulars: cited from earlier work; for Soret peak shift: lead compounds and cYY (type I shift for cYY); for Kd: lead compounds and natural substrate cYY; for Soret peak shift to: azole antifungal drugs binding Mtb CYP121A1.
For data set [4], the system named is M. tuberculosis H37Rv. On the set-up: method as in PMID 29185746. Particulars: lead compounds; cited from earlier work.
[5] abbreviates: Mycobacterium tuberculosis, H37RV, 168 h, read-out: MIC.

Converted amounts (≈) assume the structure as drawn. Read-outs that look alike come from different tables or passages of the source.

T1 sequence (P9WPP7 whole entry): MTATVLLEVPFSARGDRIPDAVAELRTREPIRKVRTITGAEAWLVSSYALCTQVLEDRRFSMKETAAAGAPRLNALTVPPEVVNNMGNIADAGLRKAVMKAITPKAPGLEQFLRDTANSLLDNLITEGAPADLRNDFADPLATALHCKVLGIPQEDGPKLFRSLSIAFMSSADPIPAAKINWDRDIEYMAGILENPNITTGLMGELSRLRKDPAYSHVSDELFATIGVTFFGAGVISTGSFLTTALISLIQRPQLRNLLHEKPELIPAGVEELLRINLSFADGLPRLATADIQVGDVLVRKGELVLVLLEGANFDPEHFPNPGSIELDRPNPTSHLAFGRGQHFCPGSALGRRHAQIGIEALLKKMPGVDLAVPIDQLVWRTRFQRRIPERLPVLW

For orientation: Kd means the concentration at which binding is half-saturated. A word on the MIC: it is the lowest concentration that inhibits growth of the organism. In general, melting point refers to the temperature of the solid-liquid transition. Compound `c1ccc(-n2cc(Cn3ccnc3)c(-c3ccncc3)n2)cc1` [10 a, 4‐(4‐((1H‐Imidazol‐1‐yl)methyl)‐1‐phenyl‐1H‐pyrazol‐3‐yl)pyridine] displayed a melting point of 80 to 82 °C. Further, at CYP121A1 [1], the Soret peak shift is listed as 416.5 to 419 nm and the Kd worked out at 60.5 ± 10.5 µM. Further, the MIC in the data set with M. tuberculosis H37Rv [2] (setting [5]) fell in the range of 12.5 to 25 µg/mL (≈ 41.5 to 83 µM). This compound also registered an MIC against M. tuberculosis H37Rv [2] of 12.5 µg/mL (≈ 41.5 µM).
`c1ccc(-n2cc(Cn3ccnc3)c(-c3cccnc3)n2)cc1` [10 b, 3‐(4‐((1H‐Imidazol‐1‐yl)methyl)‐1‐phenyl‐1H‐pyrazol‐3‐yl)pyridine]: the Soret peak shift at CYP121A1 [1] is recorded as 416.5 to 421 nm. On CYP121A1 [1], this compound came in with a dissociation constant (Kd) of 53.6 ± 6.8 µM. Besides, the MIC in the data set on M. tuberculosis H37Rv [2] (setting [5]) was 12.5 to 25 µg/mL (≈ 41.5 to 83 µM); with M. tuberculosis H37Rv [2], 12.5 µg/mL (≈ 41.5 µM).
The compound `CCc1ccc(-c2nn(-c3ccccc3)cc2Cn2ccnc2)cc1` [10 c, 4‐((1H‐Imidazol‐1‐yl)methyl)‐3‐(4‐ethylphenyl)‐1‐phenyl‐1H‐pyrazole] yielded a melting point of 74 to 76 °C. For the same compound, at CYP121A1 [1], the Soret peak shift is 416.5 to 420 nm and the Kd is 18.3 ± 3.4 µM. Also, the MIC in the data set on M. tuberculosis H37Rv [2] (setting [5]) was found to be 1.56 µg/mL (≈ 4.76 µM).
For `CCCc1ccc(-c2nn(-c3ccccc3)cc2Cn2ccnc2)cc1` [10 d, 4‐((1H‐Imidazol‐1‐yl)methyl)‐1‐phenyl‐3‐(4‐propylphenyl)‐1H‐pyrazole], at CYP121A1 [1], the Soret peak shift was 416.5 to 420 nm and the Kd was 53.7 ± 5.9 µM. The MIC in the data set with M. tuberculosis H37Rv [2] (setting [5]) worked out at 0.781 µg/mL (≈ 2.28 µM).
As to `CC(C)c1ccc(-c2nn(-c3ccccc3)cc2Cn2ccnc2)cc1` [10 e, 4‐((1H‐Imidazol‐1‐yl)methyl)‐3‐(4‐isopropylphenyl)‐1‐phenyl‐1H‐pyrazole], at CYP121A1 [1], the Soret peak shift was in the range of 416.5 to 423 nm, the Kd was found to be 22.5 ± 3.5 µM and the “Soret maxima shifting by” value is 6.5 nm. Besides, the MIC in the data set with M. tuberculosis H37Rv [2] (setting [5]) worked out at 1.56 µg/mL (≈ 4.56 µM).
As for `CC(C)Cc1ccc(-c2nn(-c3ccccc3)cc2Cn2ccnc2)cc1` [10 f, 4‐((1H‐Imidazol‐1‐yl)methyl)‐3‐(4‐isobutylphenyl)‐1‐phenyl‐1H‐pyrazole], on CYP121A1 [1], the Soret peak shift is 416.5 to 423.5 nm, binding was put at a Kd of 0.22 ± 0.01 µM and the “Soret maxima shifting by” value worked out at 7 nm. In addition, the MIC in the data set with M. tuberculosis H37Rv [2] (setting [5]) turned out to be 1.56 µg/mL (≈ 4.38 µM).
On to `CC(C)(C)c1ccc(-c2nn(-c3ccccc3)cc2Cn2ccnc2)cc1` [10 g, 4‐((1H‐Imidazol‐1‐yl)methyl)‐3‐(4‐(tert‐butyl)phenyl)‐1‐phenyl‐1H‐pyrazole], for which the melting point was 116 to 117 °C. Also, on CYP121A1 [1], the Soret peak shift is 416.5 to 419.5 nm and the Kd came to 4.81 ± 0.31 µM. Besides, the MIC in the data set with M. tuberculosis H37Rv [2] (setting [5]) was found to be 1.56 µg/mL (≈ 4.38 µM).
In turn, `c1ccc(-c2ccc(-c3nn(-c4ccccc4)cc3Cn3ccnc3)cc2)cc1` [10 h, 4‐((1H‐Imidazol‐1‐yl)methyl)‐3‐([1,1′‐biphenyl]‐4‐yl)‐1‐phenyl‐1H‐pyrazole] came in with a melting point of 114 to 115 °C. Moreover, at CYP121A1 [1], the Soret peak shift lay within 416.5 to 423.5 nm, binding was put at a Kd of 2.91 ± 0.14 µM and the “Soret maxima shifting by” value is on record as 7 nm. The MIC in the data set on M. tuberculosis H37Rv [2] (setting [5]) was found to be 3.12 µg/mL (≈ 8.3 µM).
Regarding `c1ccc(-n2cc(Cn3ccnc3)c(-c3ccc4c(c3)OCO4)n2)cc1` [10 i, 4‐((1H‐Imidazol‐1‐yl)methyl)‐3‐(benzo[d][1,3]dioxol‐5‐yl)‐1‐phenyl‐1H‐pyrazole], the melting point lay within 62 to 64 °C. Besides, at CYP121A1 [1], the Soret peak shift is on record as 416.5 to 422.5 nm and the affinity, expressed as Kd, was 10.1 ± 0.3 µM. Moreover, the MIC with M. tuberculosis H37Rv [2] (setting [5]) was determined as 3.12 µg/mL (≈ 9.07 µM).
With `Clc1[nH]c2ccccc2c1-c1nn(-c2ccccc2)cc1Cn1ccnc1` [10 j, 3‐(4‐((1H‐Imidazol‐1‐yl)methyl)‐1‐phenyl‐1H‐pyrazol‐3‐yl)‐2‐chloro‐1H‐indole], on CYP121A1 [1], the Soret peak shift is recorded as 416.5 to 423.5 nm, the Kd was found to be 3.31 ± 0.05 µM and the “Soret maxima shifting by” value is reported as 7 nm. In the data set on M. tuberculosis H37Rv [2] (setting [5]), the MIC was 12.5 to 25 µg/mL (≈ 33.4 to 66.9 µM). Besides, the MIC in the data set on M. tuberculosis H37Rv [2] was determined as 25 µg/mL (≈ 66.9 µM).
In turn, `c1ccc(-n2cc(Cn3cncn3)c(-c3ccncc3)n2)cc1` [11 a, 4‐(4‐((1H‐1,2,4‐Triazol‐1‐yl)methyl)‐1‐phenyl‐1H‐pyrazol‐3‐yl)pyridine] came in with a melting point of 98 to 100 °C. Also, at CYP121A1 [1], the Soret peak shift is listed as 416.5 to 417.5 nm and the affinity, expressed as Kd, was 115 ± 27 µM. Moreover, the MIC with M. tuberculosis H37Rv [2] (setting [5]) was more than 100 µg/mL.
In turn, `c1ccc(-n2cc(Cn3cncn3)c(-c3cccnc3)n2)cc1` [11 b, 3‐(4‐((1H‐1,2,4‐Triazol‐1‐yl)methyl)‐1‐phenyl‐1H‐pyrazol‐3‐yl)pyridine] showed a melting point of 110 to 112 °C. At CYP121A1 [1], the Soret peak shift is given as 416.5 to 417.5 nm and the Kd was 250 ± 51.6 µM. Besides, the MIC with M. tuberculosis H37Rv [2] (setting [5]) was more than 100 µg/mL.
Compound `O=C(NCCCn1ccnc1)c1cn(-c2ccccc2)nc1-c1ccncc1` [13 a, N‐(3‐(1H‐Imidazol‐1‐yl)propyl)‐1‐phenyl‐3‐(pyridin‐4‐yl)‐1H‐pyrazole‐4‐carboxamide] had a melting point of 104 to 106 °C. Besides, at CYP121A1 [1], the Soret peak shift is listed as 416.5 to 423.5 nm, binding was characterised by a dissociation constant (Kd) of 83.2 ± 3.9 µM and the “Soret maxima shifting by” value worked out at 7 nm. Besides, in the data set on M. tuberculosis H37Rv [2] (setting [5]), the MIC came to 100 µg/mL (≈ 269 µM).
In turn, `O=C(NCCCn1ccnc1)c1cn(-c2ccccc2)nc1-c1cccnc1` [13 b, N‐(3‐(1H‐Imidazol‐1‐yl)propyl)‐1‐phenyl‐3‐(pyridin‐3‐yl)‐1H‐pyrazole‐4‐carboxamide] returned a melting point of 80 to 82 °C. Besides, at CYP121A1 [1], the Soret peak shift lay within 416.5 to 417.5 nm and the affinity, expressed as Kd, was 85.6 ± 12.4 µM. In the data set with M. tuberculosis H37Rv [2] (setting [5]), the MIC was more than 100 µg/mL.
In the same order, the values of `O=C(NCc1ccncc1)c1cn(-c2ccccc2)nc1-c1ccncc1` [14 a, 1‐Phenyl‐3‐(pyridin‐4‐yl)‐N‐(pyridin‐4‐ylmethyl)‐1H‐pyrazole‐4‐carboxamide] are 206 to 208 °C, 416.5 to 419.5 nm, 219 ± 13.6 µM and more than 100 µg/mL.
Take `O=C(NCc1ccncc1)c1cn(-c2ccccc2)nc1-c1cccnc1` [14 b, 1‐Phenyl‐3‐(pyridin‐3‐yl)‐N‐(pyridin‐4‐ylmethyl)‐1H‐pyrazole‐4‐carboxamide]: the melting point fell in the range of 206 to 208 °C. At CYP121A1 [1], the Soret peak shift lay in the range of 416.5 to 417.5 nm and the Kd was found to be 39 ± 8.2 µM. For the same compound, the MIC in the data set with M. tuberculosis H37Rv [2] (setting [5]) was more than 100 µg/mL.
For the compound `Clc1ccccc1C(c1ccccc1)(c1ccccc1)n1ccnc1` [Clotrimazole, clotrimazole, reference compound], the MIC in the data set on M. tuberculosis H37Rv [2] (setting [5]) was found to be 20 µg/mL (≈ 58 µM).
Take `c1ccc(-c2nn(-c3ccccc3)cc2Cn2ccnc2)cc1` [Compound 1, (1,3‐diphenyl)‐4‐((1,3‐imidazol‐1‐yl)methyl)‐1H‐pyrazole]: on CYP121A1 [3], the Soret peak shift is on record as 416.5 to 424 nm and the Kd is 2.6 ± 0.2 µM. The MIC with M. tuberculosis H37Rv [4] was 12.5 µg/mL (≈ 41.6 µM).
For the compound `c1ccc(-c2nn(-c3ccccc3)cc2Cn2cncn2)cc1` [Compound 2, 1‐((1,3‐diphenyl‐1H‐pyrazol‐4‐yl)methyl)‐1H‐1, 2, 4triazole], on CYP121A1 [3], the Soret peak shift is on record as 416.5 to 422.5 nm and the Kd was 73.5 ± 0.7 µM. For the same compound, the MIC with M. tuberculosis H37Rv [4] was 50 µg/mL (≈ 166 µM).
`COc1ccc(-n2nc(Cn3ccnc3)cc2C)cc1` [Compound 23, 3‐((1H‐Imidazol‐1‐yl)methyl)‐1‐(4‐methoxyphenyl)‐5‐methyl‐1H‐pyrazole]: at CYP121A1 [1], the Soret peak shift lay within 416.5 to 418 nm and the Kd was determined as 34.5 ± 4.8 µM.
`COc1ccc(-n2nc(Cn3cncn3)cc2C)cc1` [Compound 24, 1‐((1‐(4‐Methoxyphenyl)‐5‐methyl‐1H‐pyrazol‐3‐yl)methyl)‐1H‐1,2,4‐triazole]: on CYP121A1 [1], the Soret peak shift lay within 416.5 to 418 nm and the Kd amounted to 105 ± 7 µM. Further, in the data set on M. tuberculosis H37Rv [2] (setting [5]), the MIC was more than 100 µg/mL.
In the case of `COc1ccc(-n2nc(C)cc2Cn2ccnc2)cc1` [Compound 25, 5‐((1H‐Imidazol‐1‐yl)methyl)‐1‐(4‐methoxyphenyl)‐3‐methyl‐1H‐pyrazole], on CYP121A1 [1], the Soret peak shift lay in the range of 416.5 to 418.5 nm and binding was characterised by a dissociation constant (Kd) of 22.9 ± 0.2 µM. Also, in the data set with M. tuberculosis H37Rv [2] (setting [5]), the MIC was determined as 25 µg/mL (≈ 93.2 µM).
The compound `COc1ccc(-n2nc(C)cc2Cn2cncn2)cc1` [Compound 26, 1‐((1‐(4‐Methoxyphenyl)‐3‐methyl‐1H‐pyrazol‐5‐yl)methyl)‐1H‐1,2,4‐triazole] returned a melting point of 47 to 48 °C. In addition, the affinity on CYP121A1 [1], expressed as Kd, was 98.3 ± 7.4 µM. The MIC with M. tuberculosis H37Rv [2] (setting [5]) was found to be 100 µg/mL (≈ 371 µM).
Take `OC(Cn1cncn1)(Cn1cncn1)c1ccc(F)cc1F` [Fluconazole, fluconazole, reference compound]: in the data set on M. tuberculosis H37Rv [2] (setting [5]), the MIC is more than 100 µg/mL.
Regarding `Clc1ccc(COC(Cn2ccnc2)c2ccc(Cl)cc2Cl)cc1` (centres unmarked) [econazole], the “Soret peak shift to” value at CYP121A1 [3] is recorded as 421–423.5 nm.
As to `CC(=O)N1CCN(c2ccc(OCC3COC(Cn4ccnc4)(c4ccc(Cl)cc4Cl)O3)cc2)CC1` (centres unmarked) [ketoconazole], the “Soret peak shift to” value at CYP121A1 [3] is 421–423.5 nm.
Regarding `Clc1ccc(COC(Cn2ccnc2)c2ccc(Cl)cc2Cl)c(Cl)c1` (centres unmarked) [miconazole], on CYP121A1 [3], the “Soret peak shift to” value is given as 421–423.5 nm.

Source of the values: publication PMC6646865, “Design and Synthesis of Imidazole and Triazole Pyrazoles as Mycobacterium Tuberculosis CYP121A1 Inhibitors” (ChemistryOpen, 2019).
